Measured values published in ChEMBL document CHEMBL1201862, “PubChem BioAssay data set” (2004).
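Five concentrations, 48 hours, 96-well plates. GI50 is the concentration that inhibits growth by half.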 The source made the active and inactive calls. No stated cut-off is given here; in the data, active = GI50 up to about 1.1 µM and inactive = higher.

Experiments:
Experiment in all cases: inhibition of tumour cell growth, NCI panel, 48 h
HL-60 = test system: HL-60
UACC-257 = test system: UACC-257
CAKI-1 = test system: CAKI-1
CCRF-CEM = test system: CCRF-CEM
RPMI-8226 = test system: RPMI-8226
TK-10 = test system: TK-10
NCI/ADR-RES = test system: NCI/ADR-RES
COLO 205 = test system: COLO 205
DU-145 = test system: DU-145
SW-620 = test system: SW-620
IGROV-1 = test system: IGROV-1
A549 = test system: A549
786-0 = test system: 786-0
HCT-15 = test system: HCT-15
HOP-62 = test system: HOP-62
KM12 = test system: KM12
EKVX = test system: EKVX
UO-31 = test system: UO-31
T47D = test system: T47D
M14 = test system: M14
SK-MEL-2 = test system: SK-MEL-2
HOP-92 = test system: HOP-92
ACHN = test system: ACHN
MDA-N = test system: MDA-N
LOX IMVI = test system: LOX IMVI
PC-3 = test system: PC-3
Hs-578T = test system: Hs-578T
U-251 = test system: U-251
K562 = test system: K562
HT-29 = test system: HT-29
SN12C = test system: SN12C
SK-OV-3 = test system: SK-OV-3
SK-MEL-28 = test system: SK-MEL-28
OVCAR-4 = test system: OVCAR-4
NCI-H226 = test system: NCI-H226
SR = test system: SR
HCT-116 = test system: HCT-116
UACC-62 = test system: UACC-62
OVCAR-5 = test system: OVCAR-5
HCC 2998 = test system: HCC 2998
SF-539 = test system: SF-539
NCI-H522 = test system: NCI-H522
A498 = test system: A498
MDA-MB-435 = test system: MDA-MB-435
MOLT-4 = test system: MOLT-4
OVCAR-3 = test system: OVCAR-3
MCF7 = test system: MCF7
NCI-H460 = test system: NCI-H460
SF-268 = test system: SF-268
RXF 393 = test system: RXF 393
NCI-H23 = test system: NCI-H23
SK-MEL-5 = test system: SK-MEL-5
SF-295 = test system: SF-295
Malme-3M = test system: Malme-3M
SNB-19 = test system: SNB-19
SNB-75 = test system: SNB-75
MDA-MB-231 = test system: MDA-MB-231
OVCAR-8 = test system: OVCAR-8

## NC(=O)c1cc(N(CCO)CCO)c([N+](=O)[O-])cc1[N+](=O)[O-]
HL-60
  GI50: > 100 µM (inactive)
UACC-257
  GI50: > 100 µM (inactive)
CAKI-1
  GI50: > 100 µM (inactive)
CCRF-CEM
  GI50: > 100 µM (inactive)
RPMI-8226
  GI50: > 100 µM (inactive)
TK-10
  GI50: > 100 µM (inactive)
NCI/ADR-RES
  GI50: > 100 µM (inactive)
COLO 205
  GI50: > 100 µM (inactive)
DU-145
  GI50: > 100 µM (inactive)
SW-620
  GI50: > 100 µM (inactive)
IGROV-1
  GI50: > 100 µM (inactive)
A549
  GI50: > 100 µM (inactive)
786-0
  GI50: > 100 µM (inactive)
HCT-15
  GI50: > 100 µM
HOP-62
  GI50: > 100 µM (inactive)
KM12
  GI50: > 100 µM (inactive)
EKVX
  GI50: > 100 µM (inactive)
UO-31
  GI50: > 100 µM (inactive)
T47D
  GI50: > 100 µM (inactive)
M14
  GI50: > 100 µM (inactive)
SK-MEL-2
  GI50: > 100 µM (inactive)
HOP-92
  GI50: > 100 µM (inactive)
ACHN
  GI50: > 100 µM (inactive)
MDA-N
  GI50: > 100 µM (inactive)
LOX IMVI
  GI50: > 100 µM (inactive)
PC-3
  GI50: > 100 µM (inactive)
Hs-578T
  GI50: > 100 µM (inactive)
U-251
  GI50: > 100 µM (inactive)
K562
  GI50: > 100 µM (inactive)
HT-29
  GI50: > 100 µM (inactive)
SN12C
  GI50: > 100 µM (inactive)
SK-OV-3
  GI50: > 100 µM (inactive)
SK-MEL-28
  GI50: > 100 µM (inactive)
OVCAR-4
  GI50: > 100 µM (inactive)
NCI-H226
  GI50: > 100 µM (inactive)
SR
  GI50: > 100 µM (inactive)
HCT-116
  GI50: > 100 µM (inactive)
UACC-62
  GI50: > 100 µM (inactive)
OVCAR-5
  GI50: > 100 µM (inactive)
HCC 2998
  GI50: > 100 µM (inactive)
SF-539
  GI50: > 100 µM (inactive)
NCI-H522
  GI50: > 100 µM (inactive)
A498
  GI50: > 100 µM (inactive)
MDA-MB-435
  GI50: > 100 µM (inactive)
MOLT-4
  GI50: > 100 µM (inactive)
OVCAR-3
  GI50: > 100 µM (inactive)
MCF7
  GI50: > 100 µM (inactive)
NCI-H460
  GI50: > 100 µM (inactive)
SF-268
  GI50: > 100 µM (inactive)
RXF 393
  GI50: > 100 µM (inactive)
NCI-H23
  GI50: > 100 µM (inactive)
SK-MEL-5
  GI50: > 100 µM (inactive)
SF-295
  GI50: > 100 µM (inactive)
Malme-3M
  GI50: > 100 µM (inactive)
SNB-19
  GI50: > 100 µM (inactive)

## Cc1cc(C(F)(F)F)cc(-n2nc(NS(=O)(=O)c3cc(C)c(Cl)cc3S)nc2N)n1
HL-60
  GI50: 32.8 µM (inactive)
UACC-257
  GI50: > 100 µM (inactive)
CAKI-1
  GI50: 7.46 µM (inactive)
CCRF-CEM
  GI50: 23.7 µM (inactive)
RPMI-8226
  GI50: 65.8 µM (inactive)
TK-10
  GI50: > 100 µM (inactive)
NCI/ADR-RES
  GI50: 30.8 µM (inactive)
COLO 205
  GI50: > 100 µM (inactive)
SW-620
  GI50: > 100 µM (inactive)
IGROV-1
  GI50: 36.6 µM (inactive)
A549
  GI50: 36.6 µM (inactive)
786-0
  GI50: 44.6 µM (inactive)
HCT-15
  GI50: 39.5 µM
HOP-62
  GI50: 23.3 µM (inactive)
KM12
  GI50: 42.9 µM (inactive)
EKVX
  GI50: 55.6 µM (inactive)
T47D
  GI50: 57.1 µM (inactive)
M14
  GI50: 54.1 µM (inactive)
SK-MEL-2
  GI50: 26.2 µM (inactive)
HOP-92
  GI50: 32.7 µM (inactive)
ACHN
  GI50: 53.3 µM (inactive)
MDA-N
  GI50: 52.8 µM (inactive)
LOX IMVI
  GI50: 18.7 µM (inactive)
PC-3
  GI50: 47.4 µM (inactive)
Hs-578T
  GI50: 41 µM (inactive)
U-251
  GI50: 42.2 µM (inactive)
K562
  GI50: 39.7 µM (inactive)
HT-29
  GI50: 42 µM (inactive)
SN12C
  GI50: 35.5 µM (inactive)
SK-OV-3
  GI50: 81.7 µM (inactive)
SK-MEL-28
  GI50: 55.3 µM (inactive)
OVCAR-4
  GI50: > 95.3 µM (inactive)
NCI-H226
  GI50: 40.3 µM (inactive)
SR
  GI50: 23.4 µM (inactive)
HCT-116
  GI50: 33.7 µM (inactive)
UACC-62
  GI50: 29.5 µM (inactive)
HCC 2998
  GI50: 34.8 µM (inactive)
SNB-75
  GI50: > 100 µM (inactive)
SF-539
  GI50: > 10 µM (inactive)
NCI-H522
  GI50: 32 µM (inactive)
A498
  GI50: 26 µM (inactive)
MDA-MB-435
  GI50: 41.4 µM (inactive)
MOLT-4
  GI50: 24.3 µM (inactive)
OVCAR-3
  GI50: 51.3 µM (inactive)
MCF7
  GI50: 45.1 µM (inactive)
NCI-H460
  GI50: 24.4 µM (inactive)
SF-268
  GI50: 92.9 µM (inactive)
RXF 393
  GI50: > 100 µM (inactive)
MDA-MB-231
  GI50: 37.7 µM (inactive)
SK-MEL-5
  GI50: 37.1 µM (inactive)
SF-295
  GI50: 8.79 µM (inactive)
Malme-3M
  GI50: > 100 µM (inactive)
SNB-19
  GI50: 26.8 µM (inactive)
OVCAR-8
  GI50: 45.4 µM (inactive)
